Measured values: patent US8329743B2, “Compositions and its use in treating obesity or inducing weight loss” (Sami Labs Limited, priority 2011, dated 2012)
In brackets after ≈: the same amount, converted by molar mass.

Tested on: 3T3-L1 mouse adipocyte cells
Experiment: Adipogenesis inhibition, Oil Red-O staining of adipocytes
Assay type: cell-based
Conditions: Table 1, 3T3-L1 mouse adipocytes, OD 492 nm, read-out: Adipogenesis inhibitory activity (IC50)
Excerpt: Adipogenesis, or the development of fat cells from preadipocytes, has been one of the most intensely studied models for obesity. A fat cell develops as internally produced lipid droplets coalesce into a single large mass. The in vitro adipogenesis inhibitory model can recapitulate most of the critical aspects of fat cell formation in vivo.
A common assay to measure adipocyte differentiation in cell culture is with the dye Oil Red-O, which is a lipid-soluble red dye. Since terminal differentiation of adipocytes is accompanied by the accumulation of great amounts of lipids in large cytoplasmic vesicles, a strong, bright, staining of the cytoplasm with this dye is a reliable indicator of adipocyte differentiation.
3T3-L1 mouse adipocyte cells are seeded at a density of 5000 cell/200 μl of adipocyte induction medium in a 96 well plate. After 48 hrs, sample is added. After 72 hrs, the medium is changed to adipocyte progression medium along with the sample. The medium is similarly changed after another 48 hours. The plates are washed gently after 48 hrs with 100 μl of PBS. […] The OD reading is taken at 492 nm in microplate reader.
The results are expressed as IC50 values using Graphpad prism software. The percentage of inhibition of adipogenesis is calculated as follows,
[formula] Where C—absorbance due to adipogenesis in untreated cells • T—absorbance due to adipogenesis in sample treated cells

SMILES | IC50
C=C(C)[C@@H](CC=C(C)C)C[C@@]12C[C@@H](CC=C(C)C)C(C)(C)[C@@](CC=C(C)C)(C(=O)C(C(=O)c3ccc(O)c(O)c3)=C1O)C2=O [Garcinol] | 0.2 µg/mL (≈ 0.332 µM)
COc1cc(C=Cc2ccc(O)cc2)cc(OC)c1 [Pterostilbene, 3,5-dimethoxy-4′-hydroxystilbene] | 13.3 µg/mL (≈ 52 µM)
